Experimental data from ChEMBL document CHEMBL1201862, “PubChem BioAssay data set” (2004).
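1) Cells in 96-well plates. 2) Compound, 48 h, 5 concentrations. 3) Linear interpolation between surrounding doses. 4) Unreached endpoint = highest concentration. GI50 = concentration required for 50% inhibition of growth.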 Calls of active or inactive are those of the source. Cut-off read from the data, not from the text of the source: active = GI50 up to about 1.1 µM and inactive = higher. Peptide text beside a SMILES is read from it.

Key:
Test in all cases: inhibition of tumour cell growth, NCI panel, 48 h
A498 = system: A498
A549 = system: A549
ACHN = system: ACHN
COLO 205 = system: COLO 205
HCT-15 = system: HCT-15
HL-60 = system: HL-60
HOP-62 = system: HOP-62
LOX IMVI = system: LOX IMVI
M14 = system: M14
Malme-3M = system: Malme-3M
NCI-H226 = system: NCI-H226
OVCAR-4 = system: OVCAR-4
RXF 393 = system: RXF 393
SK-MEL-28 = system: SK-MEL-28
SK-MEL-2 = system: SK-MEL-2
SNB-19 = system: SNB-19
SR = system: SR
TK-10 = system: TK-10
U-251 = system: U-251
UO-31 = system: UO-31

Measured: GI50

O=C(CCc1ccc(O)c(O)c1)NCCc1cc(O)c(O)c(O)c1
inactive: A498 > 100 µM | A549 22.5 µM | ACHN 33.8 µM | COLO 205 37.8 µM | HL-60 49.5 µM | HOP-62 45.7 µM | LOX IMVI 17.7 µM | M14 22.4 µM | Malme-3M > 100 µM | NCI-H226 34.3 µM | OVCAR-4 20.2 µM | RXF 393 66.7 µM | SK-MEL-28 > 100 µM | SK-MEL-2 21.8 µM | SNB-19 > 100 µM | SR 26.9 µM | TK-10 > 100 µM | U-251 17.9 µM | UO-31 44.6 µM
16.4 µM: HCT-15

CC(=O)CC1CCC(=O)/C=C/C(=O)OC(CC(C)=O)CCC(=O)/C=C/C(=O)O1 (stereo not given)
2.1 µM: HCT-15
inactive: A498 18.3 µM | A549 21.7 µM | ACHN 3.44 µM | COLO 205 1.77 µM | HL-60 2.45 µM | HOP-62 23.3 µM | LOX IMVI 18.6 µM | M14 3.7 µM | Malme-3M 2.43 µM | NCI-H226 33 µM | OVCAR-4 7.83 µM | RXF 393 3.22 µM | SK-MEL-28 7.33 µM | SK-MEL-2 6.61 µM | SNB-19 19.8 µM | SR 2.23 µM | TK-10 7.35 µM | U-251 21.4 µM | UO-31 12.6 µM

N#Cc1cccc2c1Nc1ccccc1S2
inactive: A498 > 100 µM | A549 > 100 µM | ACHN > 100 µM | COLO 205 > 100 µM | HL-60 > 100 µM | HOP-62 43.4 µM | LOX IMVI > 100 µM | M14 > 100 µM | Malme-3M > 100 µM | NCI-H226 19.1 µM | OVCAR-4 > 100 µM | RXF 393 32.2 µM | SK-MEL-28 > 100 µM | SK-MEL-2 87.1 µM | SNB-19 37.8 µM | SR > 100 µM | TK-10 > 100 µM | U-251 92.7 µM | UO-31 > 100 µM
> 100 µM: HCT-15

NCCCc1c(-c2ccccc2)[nH]c(N)nc1=O
> 100 µM: HCT-15
inactive: A498 > 100 µM | A549 > 100 µM | ACHN > 100 µM | COLO 205 > 100 µM | HL-60 > 100 µM | HOP-62 > 100 µM | LOX IMVI > 100 µM | M14 > 100 µM | Malme-3M > 100 µM | NCI-H226 > 100 µM | OVCAR-4 > 100 µM | RXF 393 > 100 µM | SK-MEL-28 > 100 µM | SK-MEL-2 > 100 µM | SNB-19 > 100 µM | SR > 100 µM | TK-10 > 100 µM | U-251 > 100 µM | UO-31 > 100 µM

Cc1ccccc1-n1c(CCl)nc2ccc(Br)cc2c1=O
inactive: A498 30.1 µM | A549 18.2 µM | ACHN 30.1 µM | COLO 205 13.4 µM | HL-60 5.77 µM | HOP-62 23.4 µM | Malme-3M 17.3 µM | NCI-H226 8.87 µM | OVCAR-4 14.8 µM | RXF 393 10.2 µM | SK-MEL-28 17.5 µM | SK-MEL-2 14.6 µM | SNB-19 26.7 µM | SR 3.73 µM | TK-10 24.7 µM | U-251 13.2 µM | UO-31 14.9 µM
3.59 µM: HCT-15
active: LOX IMVI 0.0333 µM | M14 0.679 µM

CC(=O)NC(CS)C(=O)NC(CO)C(=O)NC(CO)C(=O)NC(Cc1c[nH]c2ccccc12)C(=O)N1CCCC1C(=O)NC(CO)C(=O)NC(Cc1c[nH]c2ccccc12)C(=O)NC(Cc1c[nH]cn1)C(=O)NC(CO)C(=O)NC(Cc1c[nH]c2ccccc12)C(=O)NCC(=O)NCC(=O)NC(C)C(=O)NC(CCC(N)=O)C(=O)NC(CCCCN)C(=O)NC(C)C(=O)NC(CCCNC(=N)N)C(=O)NC(CCCCN)C(N)=O (stereo not given) (Ac-CSSWPSWHSWGGAQKARK-NH2; configuration not given here)
41.3 µM: HCT-15
inactive: A498 > 50 µM | A549 > 50 µM | ACHN 17.7 µM | COLO 205 12.8 µM | HL-60 12.4 µM | HOP-62 > 50 µM | LOX IMVI 46.3 µM | M14 23.2 µM | Malme-3M 10.8 µM | NCI-H226 > 50 µM | OVCAR-4 > 50 µM | RXF 393 10 µM | SK-MEL-28 11.1 µM | SK-MEL-2 26.4 µM | SNB-19 > 50 µM | SR 11.8 µM | TK-10 > 50 µM | U-251 13 µM | UO-31 > 50 µM
